Source: patent publication US20180371044A1, “PEPTIDOMIMETIC MACROCYCLES” (Aileron Therapeutics, Inc., priority 2015, published 2018)
Where a SMILES comes first, the peptide text is derived from it. Bridges are numbered along the chain shown (N, C = ends). [ ]: non-standard residue; d: D form. NMeY = CN[C@@H](Cc1ccc(O)cc1)C(=O)O; R8 = C=CCCCCCC[C@@](C)(N)C(=O)O; S5 = C=CCCC[C@](C)(N)C(=O)O; hSer = N[C@@H](CCO)C(=O)O; Nle = CCCC[C@H](N)C(=O)O

What follows are compounds tested against T1, human GHRH receptor (hGHRHR) (Homo sapiens, UniProt Q02643) (assay: GHRHR agonism measured by cAMP (HTRF) in human 293 cells expressing hGHRHR). Details: 30 min at RT.
T1 construct: expressed in transfected cells; host or cells: Human 293 cells
T1 sequence (Q02643 23-423): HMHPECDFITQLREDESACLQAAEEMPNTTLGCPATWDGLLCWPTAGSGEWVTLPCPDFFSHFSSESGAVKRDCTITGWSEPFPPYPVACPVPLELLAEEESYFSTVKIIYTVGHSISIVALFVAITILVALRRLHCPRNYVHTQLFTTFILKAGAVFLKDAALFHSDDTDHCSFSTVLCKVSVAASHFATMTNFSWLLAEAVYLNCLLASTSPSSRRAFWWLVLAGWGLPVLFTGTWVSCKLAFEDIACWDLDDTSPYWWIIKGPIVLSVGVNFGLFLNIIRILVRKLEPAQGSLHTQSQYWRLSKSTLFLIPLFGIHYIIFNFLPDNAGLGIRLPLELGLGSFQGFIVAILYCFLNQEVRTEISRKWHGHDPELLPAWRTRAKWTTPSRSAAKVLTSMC
Format: cell-based
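Note: receptor expressed transiently or stably, cells stimulated in serum-free medium, EC50 from a non-linear dose-response fit, maximal response defined by reference GHRH stimulation.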

CCCC[C@H](NC(=O)[C@@H](NC(=O)[C@H](CC(=O)O)NC(=O)[C@H](CCC(N)=O)NC(=O)[C@H](CC(C)C)NC(=O)[C@H](CC(C)C)NC(=O)[C@H](CCCCN)NC(=O)[C@H](CCCNC(=N)N)NC(=O)[C@H](C)NC(=O)[C@H](CO)NC(=O)[C@H](CC(C)C)NC(=O)[C@H](CCC(N)=O)NC(=O)[C@H](C)NC(=O)[C@H](CC(C)C)NC(=O)[C@@H](NC(=O)[C@H](CCCCN)NC(=O)[C@H](CCCNC(=N)N)NC(=O)[C@H](Cc1ccc(O)cc1)NC(=O)[C@H](CO)NC(=O)[C@H](CC(N)=O)NC(=O)[C@@H](NC(=O)[C@H](Cc1ccccc1)NC(=O)[C@@H](NC(=O)[C@H](C)NC(=O)[C@H](CC(=O)O)NC(=O)[C@H](C)NC(=O)[C@@H](N)Cc1ccc(O)cc1)[C@@H](C)CC)[C@@H](C)O)C(C)C)[C@@H](C)CC)C(=O)N[C@@H](CO)C(=O)N[C@@H](CCCNC(=N)N)C(N)=O [SP-5] (H-YADAIFTNSYRKVLAQLSARKLLQDI[Nle]SR-NH2) and CCCC[C@H](NC(=O)[C@@H](NC(=O)[C@H](CC(=O)O)NC(=O)[C@H](CCC(N)=O)NC(=O)[C@H](CC(C)C)NC(=O)[C@H](C)NC(=O)[C@H](CCCCN)NC(=O)[C@H](CCCNC(=N)N)NC(=O)[C@H](C)NC(=O)[C@H](CO)NC(=O)[C@H](CC(C)C)NC(=O)[C@H](CCC(N)=O)NC(=O)[C@H](C)NC(=O)[C@H](CC(C)C)NC(=O)[C@@H](NC(=O)[C@H](CCCCN)NC(=O)[C@H](CCCNC(=N)N)NC(=O)[C@H](Cc1ccc(O)cc1)NC(=O)[C@H](CO)NC(=O)[C@H](C)NC(=O)[C@@H](NC(=O)[C@H](Cc1ccccc1)NC(=O)[C@@H](NC(=O)[C@H](C)NC(=O)[C@H](CC(=O)O)NC(=O)[C@H](C)NC(=O)[C@@H](N)Cc1ccc(O)cc1)[C@@H](C)CC)[C@@H](C)O)C(C)C)[C@@H](C)CC)C(=O)N[C@@H](CO)C(=O)N[C@@H](CCCNC(=N)N)C(N)=O [SP-36] (H-YADAIFTASYRKVLAQLSARKALQDI[Nle]SR-NH2) fall in the same range of EC50: 1 to 10 nM for the first, 1 to 10 nM for the second.

Compared with CC[C@H](C)[C@H](NC(=O)[C@H](C)NC(=O)[C@H](CC(=O)O)NC(=O)[C@H](C)NC(=O)[C@H](Cc1ccc(O)cc1)NC)C(=O)N[C@@H](Cc1ccccc1)C(=O)N[C@H](C(=O)N[C@@H](C)C(=O)N[C@@H](CO)C(=O)N[C@@H](Cc1ccc(O)cc1)C(=O)N[C@@H](CCCNC(=N)N)C(=O)N[C@]1(C)CCCCCCC=CCCC[C@@](C)(C(=O)N[C@@H](CCCNC(=N)N)C(=O)N[C@@H](CCCCN)C(=O)N[C@@H](C)C(=O)N[C@@H](CC(C)C)C(=O)N[C@@H](CCC(N)=O)C(=O)N[C@@H](CC(=O)O)C(=O)N[C@H](C(=O)N[C@@H](CCOC)C(=O)N[C@@H](CO)C(=O)N[C@@H](CCCNC(=N)N)C(N)=O)[C@@H](C)CC)NC(=O)[C@H](CO)NC(=O)[C@H](CC(C)C)NC(=O)[C@H](CCC(N)=O)NC(=O)[C@H](C)NC(=O)[C@H](CC(C)C)NC(=O)[C@H](C(C)C)NC1=O)[C@@H](C)O [SP-68] (H-[NMeY]ADAIFTASYR[R8]VLAQLS[S5]RKALQDI[hSer](Me)SR-NH2; staple 12-19), CCCC[C@H](NC(=O)[C@@H](NC(=O)[C@H](CC(=O)O)NC(=O)[C@H](CCC(N)=O)NC(=O)[C@H](CC(C)C)NC(=O)[C@H](C)NC(=O)[C@H](CCCCN)NC(=O)[C@H](CCCNC(=N)N)NC(=O)[C@]1(C)CCCC=CCCCCCC[C@@](C)(NC(=O)[C@H](CCCNC(=N)N)NC(=O)[C@H](Cc2ccc(O)cc2)NC(=O)[C@H](CO)NC(=O)[C@H](C)NC(=O)[C@@H](NC(=O)[C@H](Cc2ccccc2)NC(=O)[C@@H](NC(=O)[C@H](C)NC(=O)[C@H](CC(=O)O)NC(=O)[C@@H](C)NC(=O)[C@H](Cc2ccc(O)cc2)NC(=O)[C@@H]2CCCN2C(=O)[C@@H]2CCCN2)[C@@H](C)CC)[C@@H](C)O)C(=O)N[C@@H](C(C)C)C(=O)N[C@@H](CC(C)C)C(=O)N[C@@H](C)C(=O)N[C@@H](CCC(N)=O)C(=O)N[C@@H](CC(C)C)C(=O)N[C@@H](CO)C(=O)N1)[C@@H](C)CC)C(=O)N[C@@H](CO)C(=O)N[C@@H](CCCNC(=N)N)C(N)=O [SP-56] (H-PPY[dA]DAIFTASYR[R8]VLAQLS[S5]RKALQDI[Nle]SR-NH2; staple 14-21) is higher in EC50: 10 to 25 nM for the first, > 50 nM for the second. The first is the more potent here.
